According to patent publication US20060084599A1, “Compositions, methods and kits relating to notch signaling” (Maine Medical Center, priority 2003, published 2006):

Key:
[1] = test system: NIH 3T3 stable transfectants; test: FGF1-induced spheroid formation; format: cell-based, murine
Description: Clonal populations of NIH 3T3 stable transfectants were resuspended and grown in media containing 10% BCS, 10% BCS containing 1 μM PD166866, 10% BCS containing 10 ng/ml recombinant human FGF1 and 10 U/ml heparin or 10% BCS containing 10 ng/ml recombinant human FGF 1, 10 U/ml heparin and 1 μM PD 166866 as indicated in the figure legend. Approximately 2×10^5 cells were plated per well (6-well dish) and three days after plating, phase-contrast micrographs of the cells were taken.

[2] = test system: NIH 3T3 cell transfectants; test: Colony formation in soft agar (anchorage-independent growth); format: cell-based, murine
Description: Clonal populations of NIH 3T3 cells stably transfected with vector control, soluble Jagged1 (sJ1), constitutively active Notch1 (caN1), constitutively active Notch 2 (caN2), dominant negative Notch 1 (dnN1), dominant negative Notch 2 (dnN2), an oncogenic mutant of FGF1 engineered with the FGF4 signal peptide sequence (hst-β (FGF4):FGF1), or constitutively active oncogenic Ras construct (caRas), were plated on 6 cm tissue culture dishes with 0.5% agar in an overlay containing DMEM (Gibco BRL) media, 10% bovine calf serum (BCS; Hyclone), and 0.33% agar at 1.5×10^3 cells/dish. As indicated, some dishes were also treated with 1 μM of the FGFR1-specific inhibitor, PD166866 (Panek et al., 1998, J. Pharmacol. Exp. Ther. 286: 569-577) and/or 10 ng/ml recombinant human FGF1 and 10 U/ml heparin (Sigma). Cells were fed with 0.5 ml of media with or without FGF1 and/or the FGFR1-specific inhibitor every 3 days as indicated. Twenty days after plating, colonies were stained with p-iodonitrotetrazolium violet (Sigma) for visualization. Quantitation of colony formation was achieved by counting all p-iodonitrotetrazolium violet-stained colonies consisting of more than 4 cells under a Zeiss Stemi SVII Apo dissecting microscope.
Anchorage-Dependent and -Independent Cell Growth Assays. Approximately 3×10^4 cells were plated on fibronectin (10 μg/cm^2)-coated in 12-well cell culture dishes (Falcon) in DMEM containing 10% BCS (v/v) (Hyclone). Three wells of the individual NIH 3T3 cell transfectants were harvested every third day and cell number was quantitated using a hemocytometer. Anchorage-independent cell growth was evaluated by plating in duplicate approximately 1.7×10^3 cells in DMEM containing 0.5% (w/v) agar (Sigma) 10% (v/v) BCS into 5 cm plastic dishes (Falcon) as previously described (Small et al., 2003, J. Biol. Chem. 278:16405-16413).

[3] = test system: caN1/CSL-activated transcription; test: Transient transfection assay of CSL-regulated transcription (Example 1); format: cell-based, murine; settings: exogenous FGF1 1-10 ng/ml; caN1 transfectants
Description: NIH 3T3 cells were plated onto fibronectin-coated (10 μg/cm2) 12-well tissue culture dishes and transiently transfected at approximately 80% confluency with 500 ng of a Luciferase construct activated by 4 tandem copies of the CSL (CBF1) response element (Hsieh et al. 1996, Mol. Cell. Biol. 16: 952-959), 100 ng of the TK Renilla (Promega) construct as an internal control for transfection efficiency, and 500 ng of either vector control, sJ1 or caN1 constructs using Fugene 6 (Roche) per manufacturer's instructions. For analysis of caN1 activity in the background of NIH 3T3 stable lines, vector control, caN1, sJ1 and hst-β(FGF4):FGF1 stable transfectants were plated onto fibronectin-coated (10 μg/cm2) 12-well tissue culture dishes and transiently transfected with 500 ng of the CSL-Luciferase construct, 100 ng of the TK Renilla (Promega) construct as an internal control for transfection efficiency, and 200 ng of caN1. […] The cells were harvested 48 hours after the media change and Luciferase/Renilla activity was measured using Promega's Dual-Luciferase Reporter Assay System. The efficiency of transcription was measured and normalized in relationship to the activity of pRL-TK Renilla and the activity is reported as the ratio of Luciferase/Renilla activity. […]

[4] = test system: Jagged1; test: Jagged1 expression by immunoblot; format: cell-based, murine; settings: 10 ng/ml FGF1 and 10 U/ml heparin in growth media
Description: Vector control, SJ1, CaN1, J1, Hstβ(FGF4):FGF1 and sJ1:caN1 stable NIH 3T3 cell transfectants were plated on tissue culture dishes in either normal growth media (DMEM (Gibco BRL) media, 10% bovine calf serum (BCS; Hyclone)) or normal growth media containing 10 ng/ml recombinant FGF1 and 10 U/mi heparin. Cells were harvested at confluency (based on status of vector control cells grown in normal growth media).
Because hst-β(FGF4):FGF1 stable transfectants and the sJ1 transfectants grown in FGF 1-containing media form spheroids, all cells were harvested by scraping in the presence of the growth media dn then the cells/growth media was collected into sterile 15 ml conical tubes. Cells were pelleted by centrifugation at 800×g for 5′ at 4° C. After centrifugation, the supernatant was removed and the cell pellets were washed 3× with 1×PBS. Cells were lysed in 500 μl in 20 mM tris, pH 7.5 containing 300 mM sucrose, 60 mM KCl, 15 mM NaCl, 0.5 mM EDTA, 0.5% (v/v) Triton X-100 1 mM Phenymethyl sulfonyl flouride, 0.1% SDS, 2 μg/ml aprotinin, […], 10 μg/ml leupeptin, and 1 mM sodium orthovanadate for 15 minutes on ice. Cell lysates were pelleted and the supernatant containing soluble proteins removed.
Samples were normalized to protein concentration using the BCA Protein Assay Kit (Pierce). […]

[5] = test system: CSL1-dependent transcription; test: Dual luciferase reporter assay of CSL1-dependent transcription (Example 2); format: cell-based, murine
Description: Insert-less vector control and sJ1 NIH 3T3 cell transfectants (approximately 3×10^4) were plated on fibronectin-coated (10 μg/cm^2) cell culture dishes and the cells were transiently transfected at approximately 50% confluency with 500 ng of a luciferase construct containing four tandem copies of the CBF1 response element (Small et al., 2001, J. Biol. Chem. 276:32022-32030).
Cotransfection with 100 ng of the TK Renilla (Promega) construct was used as an internal control for transfection efficiency using Fugene 6 (Roche), according to the manufacturer's instructions. Cells were treated with or without 10, […] hours after transfection, harvested 48 hours after the transfection and luciferase/renilla activity measured using the Dual Luciferase Reporter Assay System (Promega). Each experiment was performed in triplicate.

[6] = target: FGFR1 (mouse) (UniProt P16092); test: cell-based or functional assay
Chain of FGFR1 (mouse) (P16092 22-822): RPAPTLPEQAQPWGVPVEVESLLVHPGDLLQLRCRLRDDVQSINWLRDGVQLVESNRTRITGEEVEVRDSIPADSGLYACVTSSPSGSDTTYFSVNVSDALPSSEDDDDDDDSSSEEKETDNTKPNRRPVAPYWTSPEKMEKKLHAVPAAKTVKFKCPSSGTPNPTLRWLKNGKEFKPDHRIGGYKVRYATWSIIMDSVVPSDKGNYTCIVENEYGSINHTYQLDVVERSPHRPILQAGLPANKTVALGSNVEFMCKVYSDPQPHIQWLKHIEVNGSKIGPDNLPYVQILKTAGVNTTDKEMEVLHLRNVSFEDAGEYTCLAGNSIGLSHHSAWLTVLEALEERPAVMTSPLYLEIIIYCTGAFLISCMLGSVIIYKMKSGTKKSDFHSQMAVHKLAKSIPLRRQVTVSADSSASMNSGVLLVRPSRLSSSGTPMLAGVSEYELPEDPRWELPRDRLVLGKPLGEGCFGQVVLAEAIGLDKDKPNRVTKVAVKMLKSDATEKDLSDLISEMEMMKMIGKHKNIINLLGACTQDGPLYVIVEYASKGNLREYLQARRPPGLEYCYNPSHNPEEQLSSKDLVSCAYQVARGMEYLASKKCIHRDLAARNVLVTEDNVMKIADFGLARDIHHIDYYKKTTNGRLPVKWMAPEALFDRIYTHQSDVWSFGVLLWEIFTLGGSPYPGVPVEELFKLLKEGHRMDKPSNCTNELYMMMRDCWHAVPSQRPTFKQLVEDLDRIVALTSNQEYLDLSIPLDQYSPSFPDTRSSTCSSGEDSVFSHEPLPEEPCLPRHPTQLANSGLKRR

[7] = target: Notch receptor; test: cell-based or functional assay
[8] = test system: in vitro translation product of the Delta1 transcript
[9] = test system: full-length human Jagged1, in vitro translation product
[10] = target: full-length human Jagged1 on NIH 3T3 cell transfectants (human) (UniProt P78504); test: cell-based or functional assay
Chain of full-length human Jagged1 on NIH 3T3 cell transfectants (human) (P78504 34-1218 A1171G limits assumed): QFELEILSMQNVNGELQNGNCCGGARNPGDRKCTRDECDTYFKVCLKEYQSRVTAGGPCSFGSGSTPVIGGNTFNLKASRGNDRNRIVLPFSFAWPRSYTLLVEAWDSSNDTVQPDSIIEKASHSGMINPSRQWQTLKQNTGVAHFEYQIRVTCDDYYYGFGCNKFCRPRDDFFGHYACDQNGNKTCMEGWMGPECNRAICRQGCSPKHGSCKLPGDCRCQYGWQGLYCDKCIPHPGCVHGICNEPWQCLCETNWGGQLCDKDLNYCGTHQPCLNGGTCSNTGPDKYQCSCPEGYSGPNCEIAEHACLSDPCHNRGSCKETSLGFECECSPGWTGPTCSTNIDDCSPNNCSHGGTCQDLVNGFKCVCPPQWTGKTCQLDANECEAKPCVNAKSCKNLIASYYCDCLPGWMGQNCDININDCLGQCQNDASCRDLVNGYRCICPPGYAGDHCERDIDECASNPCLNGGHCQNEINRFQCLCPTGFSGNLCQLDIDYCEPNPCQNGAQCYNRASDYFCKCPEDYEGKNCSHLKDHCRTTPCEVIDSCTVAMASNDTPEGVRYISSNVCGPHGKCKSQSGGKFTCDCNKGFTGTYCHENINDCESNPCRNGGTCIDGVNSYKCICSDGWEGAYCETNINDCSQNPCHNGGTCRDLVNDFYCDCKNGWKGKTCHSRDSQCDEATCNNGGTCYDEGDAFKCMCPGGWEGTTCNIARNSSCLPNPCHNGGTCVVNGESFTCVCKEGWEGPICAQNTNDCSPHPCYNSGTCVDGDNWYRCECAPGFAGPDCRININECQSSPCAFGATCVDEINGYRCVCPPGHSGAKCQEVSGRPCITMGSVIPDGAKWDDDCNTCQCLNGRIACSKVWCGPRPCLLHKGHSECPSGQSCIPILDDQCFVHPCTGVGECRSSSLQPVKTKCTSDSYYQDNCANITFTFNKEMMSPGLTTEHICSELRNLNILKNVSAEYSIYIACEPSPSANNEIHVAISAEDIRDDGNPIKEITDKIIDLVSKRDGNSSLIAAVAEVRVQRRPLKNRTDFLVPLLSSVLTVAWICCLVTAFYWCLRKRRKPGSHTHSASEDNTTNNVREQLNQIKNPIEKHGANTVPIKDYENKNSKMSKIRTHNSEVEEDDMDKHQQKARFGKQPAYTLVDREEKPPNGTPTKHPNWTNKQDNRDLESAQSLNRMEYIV

With `COc1cc(OC)cc(-c2cc3cnc(N)nc3nc2NC(=O)NC(C)(C)C)c1` [PD166866] the “effect on FGF1-induced spheroid formation” value ([1]; 1 μM PD166866, sJ1, dnN1 and hst-β(FGF4):FGF1 transfectants) was “completely abolished FGF1-induced spheroid formation”, the “effect on anchorage-independent growth of sDl1 NIH 3T3 cell transfectants” value [2] was “completely inhibited” and the “effect on colony formation in caRas cells” value ([2]; 1 μM) was “had no effect on colony formation in the caRas cells”. For the same compound, the “effect on colony growth of sJ1 and dnN1 in the absence of FGF1” value ([2]; 1 μM) was “inhibited small colony growth” and the “effect on FGF1-mediated colony formation” value ([2]; 1 μM, sJ1, dnN1 and hst-β(FGF4):FGF1 transfectants) was “substantially reduced FGF1-mediated colony formation”.
With “FGF1: recombinant human FGF1 (acidic FGF)” the “effect on caN1/CSL transcription” value [3] was “repressed caN1/CSL transcription in a dose-dependent fashion”, the “effect on Jagged1 expression” value [4] was “increased Jagged1 expression in all stable lines examined” and the “CSL1-dependent transcription, level relative to control” value ([5]; thrombin on full-length Jagged1 NIH 3T3 transfectants, sJ1 expression, 10 ng/ml exogenous FGF1) was “approximately 25 % of the control level”. The “spheroid formation in Notch-repressed (sJ1, dnN1) NIH 3T3 cells” value ([1]; 10 ng/ml recombinant FGF1 and 10 U/ml heparin) was “formed multicellular, spheroid-like structures” and the “effect on colonies formed by sJ1 and dnN1 transfectants” value ([2]; 10 ng/ml FGF1 in growth media) was “greatly exaggerated the size of the colonies”.
heparin [reference compound] was tested, and the “effect of heparin on thrombin-dependent repression of CSL1-dependent transcription” value ([5]; heparin 5 units/ml with thrombin 10 μg/ml, full-length Jagged1 NIH 3T3 transfectants) was “able to potentiate the thrombin-dependent repression of CSL1-dependent transcription” and the “effect of heparin on CSL1-dependent transcription” value ([5]; heparin by itself or with 10 μM TRAP) was “ineffective in altering CSL1-dependent transcription”.
“recombinant FGF1 (from UniProt P05230 16-155) (ligand)” gave a DNA synthesis ((3H)-thymidine-labelled nuclei) in Swiss 3T3 cells expressing dnFGFR1 [6] of 70 % reduction.
“soluble Jagged1 (sJ1) (from UniProt P78504 34-1067) (ligand)” was tested, and the CSL1-dependent transcription (dual luciferase reporter) (% of the control level) [7] was 25.
α-thrombin was tested, and the “proteolytic cleavage of the in vitro translation product” value [8] was “thrombin was unable to proteolytically modify the in vitro translation product of the Delta1 transcript” and the “proteolytic cleavage of in vitro translated (35S)-labelled Jagged1, SDS-PAGE and autoradiography” value [9] was “cleavage of the full-length Jagged1 protein into 39 kDa and 95 kDa fragments”.
With α-thrombin (enzyme) the CSL1-dependent transcription (dual luciferase reporter) in full-length Jagged1 NIH 3T3 cell transfectants (% of the control level) [10] was 75.
